From ChEMBL document CHEMBL6182903, “Synthetic approaches and clinical application of KRAS inhibitors for cancer therapy” (Eur J Med Chem, 2025)
pIC50, pKi: −log10 of the molar value.

How the values were obtained:
GTPase KRas [1] = biological target: T1, GTPase KRas (Homo sapiens, UniProt P01116, G12S); experiment: Binding affinity to human recombinant GDP-bound KRAS G12S mutant (1 to 169 residues) assessed as inhibition constant
GTPase KRas [2] = biological target: T1, GTPase KRas; experiment: Inhibition of KRAS G12S mutant in human A549 cells assessed as reduction in ERK phosphorylation; format: cell-based
[3] = biological target: von Hippel-Lindau disease tumor suppressor/GTPase KRas (Homo sapiens, UniProt P01116+P40337, G12C); experiment: PROTAC activity at VHL/KRAS G12C mutant in human MIA PaCa-2 cells assessed as induction of KRAS G12C degradation; format: cell-based
BaF3 = experiment: Cytotoxicity against mouse BaF3 cells harboring KRAS G12R mutant assessed as reduction in cells growth incubated for 72 hrs by Celltiter-Glo luminescence-based assay; format: functional, cell-based; settings: BaF3, 72 h
[4] = PROTAC activity at CRBN/KRAS G12C mutant in human MIA PaCa-2 cells assessed as induction of KRAS G12C degradation; format: cell-based

`O=C1O[C@H]2CN(c3nc(OCC45CCCN4CCC5)nc4c3CCN(c3cccc5cccc(Cl)c35)C4)CC[C@@H]12` showed a pKi (GTPase KRas [1]) of 4.59 and a pIC50 (GTPase KRas [2]) of 5.62.

Molecule `C=C(F)C(=O)N1CCN(c2nc(OC[C@@H]3CCCN3CCCOCCC(=O)N[C@H](C(=O)N3C[C@H](O)C[C@H]3C(=O)NCc3ccc(-c4scnc4C)cc3)C(C)(C)C)nc3c2CCN(c2cccc4cccc(Cl)c24)C3)C[C@@H]1CC#N` has a DC50 [3] of 0.12 µM.

For `CC(=O)CC(=O)N1[C@@H]2CC[C@H]1CN(c1nc(OCC34CCCN3CCC4)nc3c(F)c(-c4cccc5cccc(Cl)c45)ncc13)C2`, the pIC50 (BaF3) was > 4.00.

In the case of `C=CC(=O)N1CCN(c2nc(NCCCN3CCN(CCCNc4cccc5c4C(=O)N(C4CCC(=O)NC4=O)C5=O)CC3)nc3c(F)c(-c4cc(O)cc5ccccc45)c(Cl)cc23)CC1` (stereo not given), the DC50 [4] was 3.2 µM.
